The subject of series [1] is Plasmodium falciparum. The series can be described thus: Antimalarial activity against chloroquine-resistant, pyrimethamine-sensitive Plasmodium falciparum Vietnam Oak Knoll in Aotus monkey assessed as dose required to >50% cures compound treated for 7 days. Format: functional.
The nature of series [2]: Toxicity in chloroquine-sensitive, pyrimethamine-resistant Plasmodium falciparum Malayan Camp CH/Q infected in Aotus monkey compound treated for 7 days. To be noted: in vivo.
For series [3], the system named is Plasmodium falciparum. The series can be described thus: Antimalarial activity against Plasmodium falciparum Vietnam Oak Knoll in po once daily dosed Owl monkey assessed as curative dose compound treated for 7 days. Format: functional.
Another series concerns Plasmodium vivax. The series can be described thus: Antimalarial activity against Plasmodium vivax New Guinea Chesson in po once daily dosed Owl monkey assessed as curative dose compound treated for 7 days. Format: functional.
Series [4] has as its system Plasmodium berghei. The series can be described thus: Antimalarial activity against trophozoite-induced Plasmodium berghei infected in mouse assessed as change in mean survival time at 20 mg/kg, sc single dose after 72 hrs of infection. Format: functional. As to conditions: route subcutaneous.
Series [5] relates to Plasmodium berghei. Briefly: Antimalarial activity against trophozoite-induced Plasmodium berghei infected in mouse assessed as change in mean survival time at 10 mg/kg, sc single dose after 72 hrs of infection. Format: functional. To be noted: route subcutaneous.
The test system of series [6] is Plasmodium berghei. Briefly: Antimalarial activity against trophozoite-induced Plasmodium berghei infected in mouse assessed as change in mean survival time at 5 mg/kg, sc single dose after 72 hrs of infection. Format: functional. As to conditions: route subcutaneous.
Series [7] has as its system Plasmodium berghei. The series can be described thus: Antimalarial activity against trophozoite-induced Plasmodium berghei infected in mouse assessed as change in mean survival time at 2.5 mg/kg, sc single dose after 72 hrs of infection. To be noted: route subcutaneous. Format: functional.
Series [8] has as its system Plasmodium berghei. The series can be described thus: Antimalarial activity against trophozoite-induced Plasmodium berghei infected in mouse assessed as change in mean survival time at 1.25 mg/kg, sc single dose after 72 hrs of infection. To be noted: route subcutaneous. Format: functional.
The subject of a further series is Enterococcus faecalis. Briefly: Antibacterial activity against Streptococcus faecalis MGH-2 assessed as growth inhibition. Format: functional.
Series [9] concerns Staphylococcus aureus. Briefly: Antibacterial activity against Staphylococcus aureus UC-76 assessed as growth inhibition. Format: functional.
For series [10], the system named is Staphylococcus aureus. The series can be described thus: Antibacterial activity against Staphylococcus aureus S18713 assessed as growth inhibition. Format: functional.
In a further series the test system is Pseudomonas aeruginosa. Briefly: Antibacterial activity against Pseudomonas aeruginosa 28 assessed as growth inhibition. Format: functional.
In the next series the test system is Escherichia coli. The series can be described thus: Antibacterial activity against Escherichia coli Vogel assessed as growth inhibition. Format: functional.
The next series deals with Shigella sonnei. Briefly: Antibacterial activity against Shigella sonnei C-10 assessed as growth inhibition. Format: functional.
In series [11] the test system is Mycobacterium tuberculosis. The series can be described thus: Antibacterial activity against Mycobacterium tuberculosis H37Rv assessed as growth inhibition. Format: functional.
The test system of series [12] is Plasmodium berghei. Briefly: Antimalarial activity against trophozoite-induced Plasmodium berghei infected in sc dosed mouse assessed as minimum curative dose. Format: functional.
Series [13] relates to Plasmodium berghei. The series can be described thus: Antimalarial activity against trophozoite-induced Plasmodium berghei infected in mouse assessed as change in mean survival time at 40 mg/kg, sc single dose after 72 hrs of infection. Format: functional. As to conditions: route subcutaneous.
In series [14] the test system is Plasmodium gallinaceum. Briefly: Antimalarial activity against sporozoite-induced Plasmodium gallinaceum infected in chick assessed as change in cured at 240 mg/kg, sc single dose. Format: functional. As to conditions: route subcutaneous.
Series [15] has as its system Plasmodium gallinaceum. Briefly: Antimalarial activity against sporozoite-induced Plasmodium gallinaceum infected in chick assessed as change in cured at 120 mg/kg, sc single dose. Format: functional. As to conditions: route subcutaneous.
Series [16] concerns Plasmodium gallinaceum. Briefly: Antimalarial activity against sporozoite-induced Plasmodium gallinaceum infected in chick assessed as change in cured at 60 mg/kg, sc single dose. Format: functional. As to conditions: route subcutaneous.
For series [17], the system named is Plasmodium gallinaceum. Briefly: Antimalarial activity against sporozoite-induced Plasmodium gallinaceum infected in chick assessed as change in cured at 30 mg/kg, sc single dose. As to conditions: route subcutaneous. Format: functional.
The subject of series [18] is Plasmodium gallinaceum. The series can be described thus: Antimalarial activity against sporozoite-induced Plasmodium gallinaceum infected in chick assessed as change in cured at 15 mg/kg, sc single dose. Format: functional. As to conditions: route subcutaneous.
Series [19] relates to Plasmodium berghei. The series can be described thus: Antimalarial activity against trophozoite-induced Plasmodium berghei infected in mouse assessed as change in mean survival time at 80 mg/kg, sc single dose after 72 hrs of infection. Format: functional. To be noted: route subcutaneous.
Series [20] concerns Plasmodium gallinaceum. The series can be described thus: Antimalarial activity against trophozoite-induced Plasmodium gallinaceum infected in chick assessed as mean survival time at 120 mg/kg, sc single dose (reference value: 3.6 days). Format: functional. As to conditions: route subcutaneous.
Series [21] relates to Plasmodium gallinaceum. The series can be described thus: Antimalarial activity against trophozoite-induced Plasmodium gallinaceum infected in chick assessed as mean survival time at 60 mg/kg, sc single dose (reference value: 3.6 days). As to conditions: route subcutaneous. Format: functional.
In series [22] the test system is Plasmodium gallinaceum. Briefly: Antimalarial activity against trophozoite-induced Plasmodium gallinaceum infected in chick assessed as mean survival time at 30 mg/kg, sc single dose (reference value: 3.6 days). Format: functional. As to conditions: route subcutaneous.
For the next series, the system named is Gallus gallus. The series can be described thus: Toxicity in trophozoite-induced Plasmodium gallinaceum infected in chick assessed as death at 30 mg/kg, sc single dose measured within 48 hrs. Format: organism-based. More on the design: dose 30 mg/kg, route subcutaneous. To be noted: chicken, in vivo.

≈ marks a conversion by molar mass, not a printed value. Some results are limits rather than exact numbers.

Take `CCc1nc(N)nc(N)c1-c1ccc(Cl)cc1` [PYRIMETHAMINE]: in the series on Plasmodium falciparum [1], the Activity was 0.6 mg/kg. The MTD at 168 h in [2] is more than 2.5 mg/kg. Also, the results for the CD90 with Plasmodium falciparum [3] and in the series with Plasmodium vivax were 0.15 mg/kg and 0.625 mg/kg, respectively. Moreover, the MST was found to be 7.7 days in the series with Plasmodium berghei [4]; 6.1 days in the series with Plasmodium berghei [5]; 5.3 days in the series on Plasmodium berghei [6]; 4.7 days in the series with Plasmodium berghei [7]; 3.1 days in the series on Plasmodium berghei [8].
The MIC is the smallest concentration in the dilution series that meets the test's criterion for growth inhibition. On to `Nc1nc(N)c2cc(S(=O)(=O)c3cc(Cl)cc(Cl)c3)ccc2n1`, for which the MIC in the series with Enterococcus faecalis is 1 µg/mL (≈ 2.71 µM); in the series on Staphylococcus aureus [9], 2.5 µg/mL (≈ 6.77 µM); in the series with Staphylococcus aureus [10], 10 µg/mL (≈ 27.1 µM); in the series on Pseudomonas aeruginosa it was more than 25 µg/mL; in the series with Escherichia coli, more than 25 µg/mL; in the series with Shigella sonnei it was more than 25 µg/mL. Also, in series [11], the MIC is more than 25 µg/mL. The MCD in the series with Plasmodium berghei [12] amounted to 160 mg/kg. For the same compound, the MST in the series on Plasmodium berghei [13] stood at 11.3 days; in the series with Plasmodium berghei [4] it was 9.7 days; in the series with Plasmodium berghei [5] it was 6.9 days; in the series on Plasmodium berghei [6], 5.9 days; in the series on Plasmodium berghei [7] it was 0.7 days; in the series on Plasmodium berghei [8], 0.3 days. Moreover, the MST in the series on Plasmodium gallinaceum [14] came to 7 days; in the series on Plasmodium gallinaceum [15], 7 days; in the series on Plasmodium gallinaceum [16] it was 7 days; in the series with Plasmodium gallinaceum [17], 6.3 days; in the series on Plasmodium gallinaceum [18] it was 2.2 days.
As to `CC1(C)N=C(N)N=C(N)N1c1ccc(Cl)cc1.Cl` [CHLORCYCLOGUANIL HYDROCHLORIDE], the MST with Plasmodium berghei [19] came out at 21.6 days; with Plasmodium berghei [13], 13.4 days; with Plasmodium berghei [4] it was 7.9 days; in the series with Plasmodium berghei [5], 4.9 days; in the series with Plasmodium gallinaceum [20] it was 22.7 days; with Plasmodium gallinaceum [21], 18.7 days. The MST in the series with Plasmodium gallinaceum [22] was 15.3 days; with Plasmodium gallinaceum [16], 0.4 days; in the series with Plasmodium gallinaceum [17], 2.3 days; with Plasmodium gallinaceum [18], 0 days. In the series with Gallus gallus, the Activity entry was “Toxic”.

The record behind these values is ChEMBL document CHEMBL3244272, “Folate antagonists. 15. 2,3-Diamino-6-(2-naphthylsulfonyl)quinazoline and related 2,4-diamino-6-[(phenyl and naphthyl)sulfinyl and sulfonyl]quinazolines, a potent new class of antimetabolites with phenomenal antimalarial activity” (J Med Chem, 1979).
